Source: ChEMBL document CHEMBL3046832, “Synthesis of some sulfonamides, disubstituted sulfonylureas or thioureas and some structurally related variants. A class of promising antitumor agents” (2007)

Key:
Assay type in all cases: functional
SF-268 [1] = assay: Cytotoxicity against Homo sapiens (human) SF268 cells assessed as cellular growth after 48 hr by Alamar blue assay; parameters: concentration or dose not given beside the values
[2] = Cytotoxicity against Homo sapiens (human) ovarian cancer cells after 48 hr by SRB assay; details: Cancer cell lines
M14 = assay: Cytotoxicity against Homo sapiens (human) M14 cells after 48 hr by SRB assay; details: M14, 48 h
[3] = Cytotoxicity against Homo sapiens (human) colon cancer cells after 48 hr by SRB assay; details: Cancer cell lines
EKVX = assay: Cytotoxicity against Homo sapiens (human) EKVX cells after 48 hr by SRB assay
KM12 = assay: Cytotoxicity against Homo sapiens (human) KM12 cells after 48 hr by SRB assay; details: KM12, 48 h
OVCAR-3 = assay: Cytotoxicity against Homo sapiens (human) OVCAR3 cells after 48 hr by SRB assay; details: OVCAR-3, 48 h
[4] = Cytotoxicity against Homo sapiens (human) non-small cell lung cancer cells after 48 hr by SRB assay; details: Cancer cell lines
RXF 393 = assay: Cytotoxicity against Homo sapiens (human) RXF393 cells after 48 hr by SRB assay; details: RXF 393, 48 h
NCI-H522 = assay: Cytotoxicity against Homo sapiens (human) NCI-H522 cells after 48 hr by SRB assay; details: NCI-H522, 48 h
CCRF-CEM = assay: Cytotoxicity against Homo sapiens (human) CCRF-CEM cells after 48 hr by SRB assay
[5] = Cytotoxicity against Homo sapiens (human) breast cancer cells after 48 hr by SRB assay; details: Cancer cell lines
NCI-H460 [6] = assay: Cytotoxicity against Homo sapiens (human) NCI-H460 cells assessed as cellular growth after 48 hr by Alamar blue assay; parameters: concentration or dose not given beside the values
HOP-92 = assay: Cytotoxicity against Homo sapiens (human) HOP92 cells after 48 hr by SRB assay; details: HOP-92, 48 h
HT-29 = assay: Cytotoxicity against Homo sapiens (human) HT-29 cells after 48 hr by SRB assay; details: HT-29, 48 h
NCI-H23 = assay: Cytotoxicity against Homo sapiens (human) NCI-H23 cells after 48 hr by SRB assay; details: NCI-H23, 48 h
SF-268 [7] = assay: Cytotoxicity against Homo sapiens (human) SF268 cells after 48 hr by SRB assay; details: SF-268, 48 h
[8] = Cytotoxicity against Homo sapiens (human) NCI-H322 cells after 48 hr by SRB assay; details: NCI-H322, 48 h
LOX IMVI = assay: Cytotoxicity against Homo sapiens (human) LOXIMVI cells after 48 hr by SRB assay
[9] = Cytotoxicity against Homo sapiens (human) NCI-ADR-RES cells after 48 hr by SRB assay
NCI-H460 [10] = assay: Cytotoxicity against Homo sapiens (human) NCI-H460 cells after 48 hr by SRB assay; details: NCI-H460, 48 h
ACHN = assay: Cytotoxicity against Homo sapiens (human) ACHN cells after 48 hr by SRB assay
RPMI-8226 = assay: Cytotoxicity against Homo sapiens (human) RPMI8226 cells after 48 hr by SRB assay; details: RPMI-8226, 48 h
[11] = Cytotoxicity against Homo sapiens (human) leukemia cells after 48 hr by SRB assay; details: Leukemia cell
SNB-75 = assay: Cytotoxicity against Homo sapiens (human) SNB75 cells after 48 hr by SRB assay; details: SNB-75, 48 h
Hs-578T = assay: Cytotoxicity against Homo sapiens (human) Hs578T cells after 48 hr by SRB assay
SNB-19 = assay: Cytotoxicity against Homo sapiens (human) SNB19 cells after 48 hr by SRB assay; details: SNB-19, 48 h
UACC-62 = assay: Cytotoxicity against Homo sapiens (human) UACC62 cells after 48 hr by SRB assay; details: UACC-62, 48 h
[12] = Cytotoxicity against Homo sapiens (human) prostate cancer cells after 48 hr by SRB assay; details: Cancer cell lines
SK-OV-3 = assay: Cytotoxicity against Homo sapiens (human) SKOV3 cells after 48 hr by SRB assay; details: SK-OV-3, 48 h
SK-MEL-28 = assay: Cytotoxicity against Homo sapiens (human) SK-MEL-28 cells after 48 hr by SRB assay; details: SK-MEL-28, 48 h
[13] = Cytotoxicity against Homo sapiens (human) renal cancer cells after 48 hr by SRB assay; details: Cancer cell lines
MOLT-4 = assay: Cytotoxicity against Homo sapiens (human) MOLT4 cells after 48 hr by SRB assay; details: MOLT-4, 48 h
A549 = assay: Cytotoxicity against Homo sapiens (human) A549 cells after 48 hr by SRB assay; details: A549, 48 h
IGROV-1 = assay: Cytotoxicity against Homo sapiens (human) IGROV1 cells after 48 hr by SRB assay; details: IGROV-1, 48 h
HCT-15 = assay: Cytotoxicity against Homo sapiens (human) HCT15 cells after 48 hr by SRB assay; details: HCT-15, 48 h
[14] = Cytotoxicity against Homo sapiens (human) CNS cancer cells after 48 hr by SRB assay; details: Cancer cell lines
DU-145 = assay: Cytotoxicity against Homo sapiens (human) DU145 cells after 48 hr by SRB assay; details: DU-145, 48 h
786-0 = assay: Cytotoxicity against Homo sapiens (human) 786-0 cells after 48 hr by SRB assay; details: 786-0, 48 h
UO-31 = assay: Cytotoxicity against Homo sapiens (human) UO31 cells after 48 hr by SRB assay; details: UO-31, 48 h
CAKI-1 = assay: Cytotoxicity against Homo sapiens (human) Caki1 cells after 48 hr by SRB assay; details: CAKI-1, 48 h
SK-MEL-5 = assay: Cytotoxicity against Homo sapiens (human) SK-MEL-5 cells after 48 hr by SRB assay; details: SK-MEL-5, 48 h
T47D = assay: Cytotoxicity against Homo sapiens (human) T47D cells after 48 hr by SRB assay
SW-620 = assay: Cytotoxicity against Homo sapiens (human) SW620 cells after 48 hr by SRB assay; details: SW-620, 48 h
BT-549 = assay: Cytotoxicity against Homo sapiens (human) BT549 cells after 48 hr by SRB assay; details: BT-549, 48 h
U-251 = assay: Cytotoxicity against Homo sapiens (human) U251 cells after 48 hr by SRB assay; details: U-251, 48 h
HCC 2998 = assay: Cytotoxicity against Homo sapiens (human) HCC2998 cells after 48 hr by SRB assay; details: HCC 2998, 48 h

With NS(=O)(=O)c1ccc(-n2nc3c(c2-c2cccs2)Cc2ccccc2-3)cc1 the Activity (SF-268 [1]) was “<=32%”, the GI50 [2] was 20.6 µM and the TGI [2] was 37.3 µM. For the same compound, the GI50 (M14) was 17.2 µM, the GI50 [3] was 14.9 µM and the TGI [3] was 37.2 µM. It also gave a GI50 (EKVX) of 11.9 µM, a GI50 (KM12) of 13.5 µM and a GI50 (OVCAR-3) of 14.4 µM. It also gave a GI50 [4] of 21.7 µM, a TGI [4] of 31.3 µM and a GI50 (RXF 393) of 17.4 µM. It also gave a GI50 (NCI-H522) of 12.4 µM, a GI50 (CCRF-CEM) of 4.24 µM and a GI50 [5] of 26.1 µM. The TGI [5] was 34.7 µM, the Activity (NCI-H460 [6]) was “<=32%” and the GI50 (HOP-92) was 5.56 µM. The GI50 (HT-29) was 22.9 µM, the GI50 (NCI-H23) was 11.9 µM and the GI50 (SF-268 [7]) was > 100 µM. It also gave a GI50 [8] of 11.9 µM, a GI50 (LOX IMVI) of 6.58 µM and a GI50 [9] of 12.4 µM. For the same compound, the GI50 (NCI-H460 [10]) was > 100 µM, the GI50 (ACHN) was 11.7 µM and the GI50 (RPMI-8226) was 6.68 µM. For the same compound, the GI50 [11] was 3.3 µM, the TGI [11] was 15.7 µM and the GI50 (SNB-75) was 25.5 µM. It also gave a GI50 (Hs-578T) of 16.1 µM, a GI50 (SNB-19) of 18.1 µM and a GI50 (UACC-62) of 11.5 µM. For the same compound, the GI50 [12] was 22.3 µM, the TGI [12] was 22.3 µM and the GI50 (SK-OV-3) was 37.7 µM. It also gave a GI50 (SK-MEL-28) of 25.8 µM, a GI50 [13] of 13.3 µM and a TGI [13] of 29.7 µM. It also gave a GI50 (MOLT-4) of 1.43 µM, a GI50 (A549) of 20.7 µM and a GI50 (IGROV-1) of 2.49 µM. The GI50 (HCT-15) was 12 µM, the GI50 [14] was 31.8 µM and the TGI [14] was 42 µM. It also gave a GI50 (DU-145) of 24.1 µM, a GI50 (786-0) of 17.1 µM and a GI50 (UO-31) of 12.2 µM. The GI50 (CAKI-1) was 10.1 µM, the GI50 (SK-MEL-5) was 10.5 µM and the GI50 (T47D) was 12.8 µM. For the same compound, the GI50 (SW-620) was 10.7 µM, the GI50 (BT-549) was 12.4 µM and the GI50 (U-251) was 12.3 µM. The GI50 (HCC 2998) was 12.8 µM.
